Experimental data reported in ChEMBL document CHEMBL3045223, “Synthesis, nematicidal and antimicrobial properties of Bis-[4-methoxy-3-[3-(4-fluorophenyl)-6-(4-methylphenyl)-2(aryl)-tetrahydro-2H-pyrazolo[3,4-d]thiazol-5-yl]phenyl]methanes” (2009).
≈ marks a conversion by molar mass, not a printed value. Calls of active or inactive are those of the source. The calls are words filed in the database; no cut-off is given here.

Assays:
Format in all cases: functional
Bacillus subtilis [1] = test: Antibacterial activity against Bacillus subtilis MTCC 441 assessed as inhibition zones at 300 ug/disk at 37 degC for 24 hr; conditions: MTCC 441, 24 h, read-out: IZ
Trichophyton rubrum [2] = test: Antifungal activity against Trichophyton rubrum IFO 9185 assessed as growth inhibition at 300 ug/disk at 37 degC for 48 hr
[3] = system: Ditylenchus myceliophagus; test: Nematicidal activity against Ditylenchus myceliophagus assessed as immobility; conditions: read-out: LD50 (the source's name)
Pseudomonas aeruginosa [4] = test: Antibacterial activity against Pseudomonas aeruginosa MTCC 741 assessed as growth arrest at 37 degC for 24 hr; conditions: MTCC 741, 24 h
Candida albicans [5] = test: Antifungal activity against Candida albicans ATCC 10231 assessed as growth inhibition at 37 degC for 48 hr; conditions: ATCC 10231, 48 h
Staphylococcus aureus [6] = test: Antibacterial activity against Staphylococcus aureus MTCC 96 assessed as growth arrest at 37 degC for 24 hr; conditions: MTCC 96, 24 h
[7] = system: Chromobacterium violaceum; test: Antibacterial activity against Chromobacterium violaceum MTCC 2656 assessed as growth arrest at 37 degC for 24 hr; conditions: MTCC 2656, 24 h
Aspergillus fumigatus [8] = test: Antifungal activity against Aspergillus fumigatus HIC 6094 assessed as growth inhibition at 300 ug/disc at 37 degC for 48 hr; conditions: for zone of inhibition at 300 µg/disc: HIC 6094, 48 h, read-out: IZ
[9] = system: Chromobacterium violaceum; test: Antibacterial activity against Chromobacterium violaceum MTCC 2656 assessed as inhibition zones at 300 ug/disk at 37 degC for 24 hr; conditions: MTCC 2656, 24 h, read-out: IZ
Trichophyton rubrum [10] = test: Antifungal activity against Trichophyton rubrum IFO 9185 assessed as growth inhibition at 37 degC for 48 hr
Bacillus subtilis [11] = test: Antibacterial activity against Bacillus subtilis MTCC 441 assessed as growth arrest at 37 degC for 24 hr; conditions: MTCC 441, 24 h
Pseudomonas aeruginosa [12] = test: Antibacterial activity against Pseudomonas aeruginosa MTCC 741 assessed as inhibition zones at 300 ug/disk at 37 degC for 24 hr; conditions: MTCC 741, 24 h, read-out: IZ
Klebsiella aerogenes [13] = test: Antibacterial activity against Enterobacter aerogenes MTCC 39 assessed as growth arrest at 37 degC for 24 hr; conditions: MTCC 39, 24 h
[14] = system: Lysinibacillus sphaericus; test: Antibacterial activity against Lysinibacillus sphaericus MTCC 11 assessed as growth arrest at 37 degC for 24 hr; conditions: MTCC 11, 24 h
[15] = system: Lysinibacillus sphaericus; test: Antibacterial activity against Lysinibacillus sphaericus MTCC 11 assessed as inhibition zones at 300 ug/disk at 37 degC for 24 hr; conditions: MTCC 11, 24 h, read-out: IZ
[16] = system: Trichophyton mentagrophytes; test: Antifungal activity against Trichophyton mentagrophytes IFO 40996 assessed as growth inhibition at 37 degC for 48 hr
Aspergillus fumigatus [17] = test: Antifungal activity against Aspergillus fumigatus HIC 6094 assessed as growth inhibition at 37 degC for 48 hr
[18] = system: Trichophyton mentagrophytes; test: Antifungal activity against Trichophyton mentagrophytes IFO 40996 assessed as growth inhibition at 300 ug/disc at 37 degC for 48 hr
Caenorhabditis elegans = test: Nematicidal activity against Caenorhabditis elegans assessed as immobility; conditions: read-out: LD50 (the source's name)
Candida albicans [19] = test: Antifungal activity against Candida albicans ATCC 10231 assessed as growth inhibition at 300 ug/disk at 37 degC for 48 hr; conditions: for zone of inhibition at 300 µg/disc: ATCC 10231, 48 h, read-out: IZ
Klebsiella aerogenes [20] = test: Antibacterial activity against Enterobacter aerogenes MTCC 39 assessed as inhibition zones at 300 ug/disk at 37 degC for 24 hr; conditions: MTCC 39, 24 h, read-out: IZ
Staphylococcus aureus [21] = test: Antibacterial activity against Staphylococcus aureus MTCC 96 assessed as inhibition zones at 300 ug/disc at 37 degC for 24 hr; conditions: MTCC 96, 24 h, read-out: IZ

What does the source list for COc1ccc(Cc2ccc(OC)c(C3SC4C(=NN(c5ccc(Cl)cc5)C4c4ccc(F)cc4)N3c3ccc([N+](=O)[O-])cc3)c2)cc1C1SC2C(=NN(c3ccc(Cl)cc3)C2c2ccc(F)cc2)N1c1ccc([N+](=O)[O-])cc1 (stereo unspecified)?
zone of inhibition at 300 µg/disc (Bacillus subtilis [1]): 21 mm; inhibition zone (IZ) (Trichophyton rubrum [2]): inactive; LC50 [3]: 230 µg/mL (≈ 203 µM); MBC (Pseudomonas aeruginosa [4]): 50 µg/mL (≈ 44.1 µM); MIC (Pseudomonas aeruginosa [4]): 50 µg/mL (≈ 44.1 µM); MBC (Candida albicans [5]): 25 µg/mL (≈ 22 µM); MIC (Candida albicans [5]): 25 µg/mL (≈ 22 µM); MBC (Staphylococcus aureus [6]): 25 µg/mL (≈ 22 µM); MIC (Staphylococcus aureus [6]): 6.25 µg/mL (≈ 5.51 µM); MBC [7]: 50 µg/mL (≈ 44.1 µM); MIC [7]: 12.5 µg/mL (≈ 11 µM); inhibition zone (IZ) (Aspergillus fumigatus [8]): inactive; zone of inhibition at 300 µg/disc [9]: 16 mm; MBC (Trichophyton rubrum [10]; IFO 9185, 48 h): 50 µg/mL (≈ 44.1 µM); MIC (Trichophyton rubrum [10]; IFO 9185, 48 h): 25 µg/mL (≈ 22 µM); MBC (Bacillus subtilis [11]): 50 µg/mL (≈ 44.1 µM); MIC (Bacillus subtilis [11]): 6.25 µg/mL (≈ 5.51 µM); zone of inhibition at 300 µg/disc (Pseudomonas aeruginosa [12]): 16 mm; MBC (Klebsiella aerogenes [13]): 25 µg/mL (≈ 22 µM); MIC (Klebsiella aerogenes [13]): 12.5 µg/mL (≈ 11 µM); MBC [14]: 50 µg/mL (≈ 44.1 µM); MIC [14]: 12.5 µg/mL (≈ 11 µM); zone of inhibition at 300 µg/disc [15]: 16 mm; MBC ([16]; IFO 40996, 48 h): 12.5 µg/mL (≈ 11 µM); MIC ([16]; IFO 40996, 48 h): 6.25 µg/mL (≈ 5.51 µM); MBC (Aspergillus fumigatus [17]; HIC 6094, 48 h): 50 µg/mL (≈ 44.1 µM); MIC (Aspergillus fumigatus [17]; HIC 6094, 48 h): 25 µg/mL (≈ 22 µM); inhibition zone (IZ) [18]: inactive; LC50 (Caenorhabditis elegans): 350 µg/mL (≈ 309 µM); zone of inhibition at 300 µg/disc (Candida albicans [19]): 15 mm; zone of inhibition at 300 µg/disc (Klebsiella aerogenes [20]): 20 mm; zone of inhibition at 300 µg/disc (Staphylococcus aureus [21]): 16 mm

With COc1ccc(Cc2ccc(OC)c(C3SC4C(=NN(C)C4c4ccc(F)cc4)N3c3ccc(Cl)cc3)c2)cc1C1SC2C(=NN(C)C2c2ccc(F)cc2)N1c1ccc(Cl)cc1 (stereo unspecified) as the compound, how does the zone of inhibition at 300 µg/disc (Bacillus subtilis [1]) read?
The zone of inhibition at 300 µg/disc was 21 mm.

What about the zone of inhibition at 300 µg/disc (Trichophyton rubrum [2]; IFO 9185, 48 h, read-out: IZ) of the same compound?
Its zone of inhibition at 300 µg/disc is 13 mm.

And the LC50 [3]?
Its LC50 is 190 µg/mL (≈ 207 µM).

What about the MBC (Pseudomonas aeruginosa [4]) of the same compound?
The MBC was 25 µg/mL (≈ 27.2 µM).

And the MIC (Pseudomonas aeruginosa [4])?
Its MIC is 12.5 µg/mL (≈ 13.6 µM).

And the MBC (Candida albicans [5])?
The MBC was 25 µg/mL (≈ 27.2 µM).

And the MIC (Candida albicans [5])?
The MIC was 12.5 µg/mL (≈ 13.6 µM).

What about the MBC (Staphylococcus aureus [6]) of the same compound?
The MBC was 12.5 µg/mL (≈ 13.6 µM).

What about the MIC (Staphylococcus aureus [6]) of the same compound?
Its MIC is 12.5 µg/mL (≈ 13.6 µM).

And the MBC [7]?
Its MBC is 50 µg/mL (≈ 54.4 µM).

What about the MIC [7] of the same compound?
The MIC was 12.5 µg/mL (≈ 13.6 µM).

And the zone of inhibition at 300 µg/disc (Aspergillus fumigatus [8])?
Its zone of inhibition at 300 µg/disc is 15 mm.

What about the zone of inhibition at 300 µg/disc [9] of the same compound?
The zone of inhibition at 300 µg/disc was 19 mm.

And the MBC (Trichophyton rubrum [10]; IFO 9185, 48 h)?
The MBC was 25 µg/mL (≈ 27.2 µM).

And the MIC (Trichophyton rubrum [10]; IFO 9185, 48 h)?
Its MIC is 6.25 µg/mL (≈ 6.79 µM).

And the MBC (Bacillus subtilis [11])?
Its MBC is 50 µg/mL (≈ 54.4 µM).

What about the MIC (Bacillus subtilis [11]) of the same compound?
The MIC was 12.5 µg/mL (≈ 13.6 µM).

What about the zone of inhibition at 300 µg/disc (Pseudomonas aeruginosa [12]) of the same compound?
Its zone of inhibition at 300 µg/disc is 21 mm.

What about the MBC (Klebsiella aerogenes [13]) of the same compound?
The MBC was 25 µg/mL (≈ 27.2 µM).

What about the MIC (Klebsiella aerogenes [13]) of the same compound?
Its MIC is 12.5 µg/mL (≈ 13.6 µM).

And the MBC [14]?
Its MBC is 25 µg/mL (≈ 27.2 µM).

What about the MIC [14] of the same compound?
The MIC was 12.5 µg/mL (≈ 13.6 µM).

And the zone of inhibition at 300 µg/disc [15]?
The zone of inhibition at 300 µg/disc was 20 mm.

What about the MBC [16] of the same compound?
The MBC was “inactive”.

What about the MIC [16] of the same compound?
The MIC was “inactive”.

And the MBC (Aspergillus fumigatus [17]; HIC 6094, 48 h)?
Its MBC is 50 µg/mL (≈ 54.4 µM).

And the MIC (Aspergillus fumigatus [17]; HIC 6094, 48 h)?
The MIC was 6.25 µg/mL (≈ 6.79 µM).

What about the zone of inhibition at 300 µg/disc ([18]; IFO 40996, 48 h, read-out: IZ) of the same compound?
Its zone of inhibition at 300 µg/disc is 16 mm.

And the LC50 (Caenorhabditis elegans)?
The LC50 was 210 µg/mL (≈ 228 µM).

What about the zone of inhibition at 300 µg/disc (Candida albicans [19]) of the same compound?
The zone of inhibition at 300 µg/disc was 18 mm.

And the zone of inhibition at 300 µg/disc (Klebsiella aerogenes [20])?
Its zone of inhibition at 300 µg/disc is 21 mm.

And the zone of inhibition at 300 µg/disc (Staphylococcus aureus [21])?
Its zone of inhibition at 300 µg/disc is 20 mm.

What does the source list for COc1ccc(Cc2ccc(OC)c(C3SC4C(=NN(C(C)C)C4c4ccc(F)cc4)N3c3ccc(C)cc3)c2)cc1C1SC2C(=NN(C(C)C)C2c2ccc(F)cc2)N1c1ccc(C)cc1 (stereo unspecified)?
zone of inhibition at 300 µg/disc (Bacillus subtilis [1]): 13 mm; inhibition zone (IZ) (Trichophyton rubrum [2]): inactive; LC50 [3]: 550 µg/mL (≈ 588 µM); MBC (Pseudomonas aeruginosa [4]): 12.5 µg/mL (≈ 13.4 µM); MIC (Pseudomonas aeruginosa [4]): 6.25 µg/mL (≈ 6.68 µM); MBC (Candida albicans [5]): 25 µg/mL (≈ 26.7 µM); MIC (Candida albicans [5]): 12.5 µg/mL (≈ 13.4 µM); MBC (Staphylococcus aureus [6]): 50 µg/mL (≈ 53.5 µM); MIC (Staphylococcus aureus [6]): 25 µg/mL (≈ 26.7 µM); MBC [7]: 25 µg/mL (≈ 26.7 µM); MIC [7]: 25 µg/mL (≈ 26.7 µM); zone of inhibition at 300 µg/disc (Aspergillus fumigatus [8]): 13 mm; zone of inhibition at 300 µg/disc [9]: 16 mm; MBC (Trichophyton rubrum [10]): inactive; MIC (Trichophyton rubrum [10]): inactive; MBC (Bacillus subtilis [11]): 50 µg/mL (≈ 53.5 µM); MIC (Bacillus subtilis [11]): 25 µg/mL (≈ 26.7 µM); zone of inhibition at 300 µg/disc (Pseudomonas aeruginosa [12]): 23 mm; MBC (Klebsiella aerogenes [13]): 12.5 µg/mL (≈ 13.4 µM); MIC (Klebsiella aerogenes [13]): 12.5 µg/mL (≈ 13.4 µM); MBC [14]: 50 µg/mL (≈ 53.5 µM); MIC [14]: 50 µg/mL (≈ 53.5 µM); zone of inhibition at 300 µg/disc [15]: 13 mm; MBC [16]: inactive; MIC [16]: inactive; MBC (Aspergillus fumigatus [17]): inactive; MIC (Aspergillus fumigatus [17]): inactive; inhibition zone (IZ) [18]: inactive; LC50 (Caenorhabditis elegans): 600 µg/mL (≈ 642 µM); inhibition zone (IZ) (Candida albicans [19]): inactive; zone of inhibition at 300 µg/disc (Klebsiella aerogenes [20]): 19 mm; zone of inhibition at 300 µg/disc (Staphylococcus aureus [21]): 23 mm
